Laboratory results published in the NIST ThermoML archive (doi:10.1021/je500513b).

Assay: mn = molality of the nth substance listed, in mol/kg
Conditions: for surface tension liquid-gas: Pendant drop shape; for electrical conductivity: 100 kPa, Liquid, Mettler Toledo inLab 710

CCCCCCCCCCCCCC[N+](C)(C)CCC[N+](C)(C)CCCCCCCCCCCCCC.[Br-].[Br-] + O
Conditions	electrical conductivity, 298.15 K [S/m]	electrical conductivity, 303.15 K [S/m]	electrical conductivity, 308.15 K [S/m]	electrical conductivity, 313.15 K [S/m]	electrical conductivity, 318.15 K [S/m]	electrical conductivity, 323.15 K [S/m]	surface tension liquid-gas, 298.15 K [mN/m]
m1 = 1e-05	–	–	–	–	–	–	57.45
m1 = 2e-05	–	–	–	–	–	–	53.65
m1 = 3e-05	–	–	–	–	–	–	50.48
m1 = 4e-05	–	–	–	–	–	–	47.51
m1 = 5e-05	–	–	–	–	–	–	45.48
m1 = 6e-05	–	–	–	–	–	–	42.44
m1 = 7e-05	–	–	–	–	–	–	40.27
m1 = 8e-05	–	–	–	–	–	–	38.27
m1 = 9e-05	–	–	–	–	–	–	37
m1 = 9.3e-05	0.00212	–	0.0026	0.00309	0.00331	0.00348	–
m1 = 9.8e-05	0.00224	0.00251	0.00274	0.00324	0.00345	0.00363	–
m1 = 0.0001	–	–	–	–	–	–	35.52
m1 = 0.000104	0.00236	0.00267	0.00288	0.00343	0.00361	0.00382	–
m1 = 0.000111	0.0025	0.00283	0.00302	0.00364	0.00382	0.004	–
m1 = 0.000119	0.00264	0.003	0.00323	0.00382	0.00404	0.00422	–
m1 = 0.00012	–	–	–	–	–	–	34.27
m1 = 0.000125	0.00274	0.00311	0.00335	0.00391	0.0042	0.00441	–
m1 = 0.000132	0.00285	0.00324	0.0035	0.00407	0.00435	0.00462	–
m1 = 0.000139	0.00294	0.00337	0.00367	0.00423	0.00454	0.00486	–
m1 = 0.00014	–	–	–	–	–	–	34.18
m1 = 0.000147	0.00303	0.00351	0.00382	0.00441	0.00478	0.00512	–
m1 = 0.000156	0.00311	0.00364	0.00398	0.00463	0.00506	0.00542	–
m1 = 0.000164	0.00318	0.00373	0.00411	0.00479	0.00528	0.00565	–
m1 = 0.00017	–	–	–	–	–	–	34.06
m1 = 0.000172	0.00325	0.00381	0.00421	0.00497	0.0055	0.00593	–
m1 = 0.000182	0.00331	0.0039	0.00434	0.00513	0.00572	0.0062	–
m1 = 0.000192	0.00338	0.00399	0.00448	0.00532	0.00599	0.00651	–
m1 = 0.0002	0.00343	0.00405	0.00455	0.00542	0.00614	0.00669	33.81
m1 = 0.000208	0.00348	0.00412	0.00464	0.00552	0.00628	0.00688	–
m1 = 0.000217	0.00352	0.00418	0.00471	0.00564	0.00642	0.00704	–
m1 = 0.000227	0.00358	0.00426	0.00479	0.00574	0.00656	0.0072	–
m1 = 0.000238	0.00365	0.00434	0.00488	0.00582	0.0067	0.00737	–
m1 = 0.00025	0.00372	0.00443	0.00498	0.00594	0.00684	0.00754	–
m1 = 0.0003	–	–	–	–	–	–	33.92
